# Measured values from paper PMC3953453 (Molecular pharmaceutics, 2012).
# Where two headings read alike, the source gives them in different places.
# Columns and labels:
# [1] = tested on: β-glucuronidase in intestinal perfusate; test: biological stability in blank intestinal perfusate; conditions: for effect on hydrolysis of wogonoside in blank intestinal perfusate: wogonoside 20 μM, 0.1 or 4.4 mM saccharolactone, 20 mM gluconolactone
# [2] = tested on: perfused rat intestine (duodenum, upper jejunum, terminal ileum and colon); test: four-site perfused rat intestinal model; assay type: in vivo; conditions: for effect of co-perfusion on absorption and metabolism of wogonoside: 0.1 mM saccharolactone, 20 mM gluconolactone, or antibiotics (100 units penicillin and 0.1mg streptomycin/mL)
# [3] = cited from earlier work
# [4] = biological target: T1, β-glucuronidase derived from intestinal S9 fraction (Rattus norvegicus, UniProt P06760); test: hydrolysis of wogonoside by rat intestine S9 fractions; assay type: in vitro ADME; conditions: for Km: read-out: Km of wogonoside hydrolysis
# T1 sequence (P06760 23-648): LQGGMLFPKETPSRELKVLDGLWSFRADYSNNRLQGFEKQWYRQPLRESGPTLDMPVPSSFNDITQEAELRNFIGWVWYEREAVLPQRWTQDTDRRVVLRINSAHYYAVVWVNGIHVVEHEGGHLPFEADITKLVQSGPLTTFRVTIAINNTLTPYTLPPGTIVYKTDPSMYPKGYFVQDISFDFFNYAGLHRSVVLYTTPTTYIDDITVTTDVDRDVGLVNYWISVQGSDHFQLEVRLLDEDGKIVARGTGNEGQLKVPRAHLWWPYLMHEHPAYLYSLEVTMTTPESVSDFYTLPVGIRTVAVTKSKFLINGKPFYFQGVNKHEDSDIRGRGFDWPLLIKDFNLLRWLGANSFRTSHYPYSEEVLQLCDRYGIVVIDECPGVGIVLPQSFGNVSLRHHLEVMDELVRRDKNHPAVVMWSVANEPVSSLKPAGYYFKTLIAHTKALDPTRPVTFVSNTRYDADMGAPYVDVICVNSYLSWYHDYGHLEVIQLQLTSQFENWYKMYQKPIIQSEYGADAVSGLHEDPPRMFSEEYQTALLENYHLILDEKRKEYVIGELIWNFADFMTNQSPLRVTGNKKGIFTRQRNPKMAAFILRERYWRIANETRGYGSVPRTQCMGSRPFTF
# [5] = stability in diluted bile solution; assay type: in vitro ADME, rat; conditions: 20 μM, 4-fold diluted bile solution, 37°C
# [6] = chemical stability of wogonoside; assay type: physicochemical
# [7] = tested on: β-glucuronidase in the rat intestine perfusates; test: hydrolysis of wogonoside in blank rat intestinal perfusate; assay type: in vitro ADME; conditions: for Vmax of wogonoside hydrolysis / Km: blank perfusate; for Km: read-out: Km of wogonoside hydrolysis
# [8] = tested on: β-glucuronidase of microbial enzymatic extract (rat feces); test: hydrolysis of wogonoside by microbial enzymatic extract from rat feces; assay type: in vitro ADME
structure (smiles),measurement,setting,value
O=C(O)[C@@H](O)[C@H]1OC(=O)[C@H](O)[C@H]1O [saccharolactone],effect on hydrolysis of wogonoside in blank intestinal perfusate,[1],inhibit the hydrolysis of wogonoside in all perfusate
same,effect of co-perfusion on absorption and metabolism of wogonoside,[2],affected both absorption and metabolism of wogonoside
same,effect of co-perfusion on absorption and metabolism of wogonin,[2]; co-perfused with 0.1 mM saccharolactone,did not affect the absorption or metabolism of wogonin
Oc1ccc(/C=C/c2cc(O)cc(O)c2)cc1 [resveratrol],bioavailability,[3],< 5%
"COc1c(O[C@@H]2O[C@H](C(=O)O)[C@@H](O)[C@H](O)[C@H]2O)cc(O)c2c(=O)cc(-c3ccccc3)oc12 [wogonoside, wogonin-7-O-glucuronide]",Vmax of wogonoside hydrolysis,[4]; Duo S9 fraction,2.06 nmol/min/mg
same,Vmax of wogonoside hydrolysis,[4]; Ile S9 fraction,0.26 nmol/min/mg
same,Vmax of wogonoside hydrolysis,[4]; Jeu S9 fraction,1.68 nmol/min/mg
same,maximal hydrolysis rate,"[4]; jejunal S9 fraction, pH 4.5, wogonoside 20μM",5.195 ± 0.103 nmol/min/mg
same,optimal pH of glucuronidase activity,"[4]; jejunal S9 fraction, wogonoside 20μM, 37°C, 30 min",4.5
same,Km,[4]; Duo S9 fraction,30 µM
same,Km,[4]; Ile S9 fraction,25.7 µM
same,Km,[4]; Jeu S9 fraction,28.2 µM
same,stability in bile,[5],fairly stable
same,chemical stability,"[6]; pH 5.5, pH 6.5 and pH 7.4, 37°C",chemically stable
same,recovery (chemical stability),"[6]; pH 5.5, pH 6.5 and pH 7.4, 8 h incubation at 37°C",104%-106%
same,stability in blank intestinal perfusate,"[1]; blank perfusate of duodenum, jejunum, ileum, colon, 37°C, up to 8 h",unstable
same,stability in blank intestinal perfusate after removal of bacteria,"[1]; centrifugation (13,000 rpm, 30 min) and aseptic filtration, 20 μM",did not improve stability of wogonoside
same,metabolite found in perfusate (interconversion),[2]; 5 μM and 20 μM perfused,significant amounts of wogonin were recovered in the wogonoside perfusate
same,intestinal absorption,"[2]; 5 μM and 20 μM, four segments",slower in every intestine regions when compared to wogonin
same,maximal hydrolysis rate,"[7]; blank jejunal perfusate, pH 4.5, wogonoside 20μM",1.559 ± 0.008 nmol/min/mg
same,Vmax of wogonoside hydrolysis,[7]; Col 60-90min,0.15 nmol/min/mg
same,Vmax of wogonoside hydrolysis,[7]; Duo 60-90min,0.15 nmol/min/mg
same,Vmax of wogonoside hydrolysis,[7]; Ile 60-90min,0.85 nmol/min/mg
same,Vmax of wogonoside hydrolysis,[7]; Ile 120-150min,0.30 nmol/min/mg
same,Vmax of wogonoside hydrolysis,[7]; Jej 0-30min,1.84 nmol/min/mg
same,Vmax of wogonoside hydrolysis,[7]; Jej 30-60min,0.93 nmol/min/mg
same,Vmax of wogonoside hydrolysis,[7]; Jej 60-90min,0.47 nmol/min/mg
same,Vmax of wogonoside hydrolysis,[7]; Jej 90-120min,0.37 nmol/min/mg
same,Vmax of wogonoside hydrolysis,[7]; Jej 120-150min,0.18 nmol/min/mg
same,Km,[7]; Col 60-90min,19.7 µM
same,Km,[7]; Duo 60-90min,19.9 µM
same,Km,[7]; Ile 60-90min,6.33 µM
same,Km,[7]; Ile 120-150min,6.96 µM
same,Km,[7]; Jej 0-30min,19.8 µM
same,Km,[7]; Jej 30-60min,15.8 µM
same,Km,[7]; Jej 60-90min,18.7 µM
same,Km,[7]; Jej 90-120min,17 µM
same,Km,[7]; Jej 120-150min,25.5 µM
same,Vmax of wogonoside hydrolysis,[8]; Microflora enzymatic extract,49.64 nmol/min/mg
same,highest hydrolysis rate,"[8]; fecal extract, pH 5.5, wogonoside 20μM",249.211 ± 0.178 nmol/min/mg
same,Km,"[8]; read-out: Km of wogonoside hydrolysis, Microflora enzymatic extract",7.7 µM
"O=C1O[C@H](CO)[C@@H](O)[C@H](O)[C@H]1O [gluconolactone, reference compound]",effect on hydrolysis of wogonoside in blank intestinal perfusate,[1],did not inhibit the hydrolysis of wogonoside
same,effect of co-perfusion on absorption and metabolism of wogonoside,[2],did not affect its absorption
